Laboratory results: patent US20080009418A1, “Selective Inhibitors” (Alchemia LTD., priority 2004, published 2008)

Tests used:
[1] = target: T1, Human melanin-concentrating hormone (MCH1) (Homo sapiens, UniProt Q99705); test: Radioligand binding, human melanin-concentrating hormone MCH1 membranes, FlashPlate, [125I]-S36057; conditions: compound at 10 μM
T1 construct: purchased Perkin Elmer Biosignal
How it was run: (§1)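 Cloned human receptor membranes were coated onto FlashPlate wells and incubated with radioligand and compound (added from a 0.5 mM DMSO daughter plate) for 1 hour at room temperature in the dark. Scintillation counting gave percent inhibition, with DMSO defining total and reference ligand defining non-specific binding.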

Mouse urotensin (mUR2) = target: T2, Mouse urotensin (mUR2) (Mus musculus, UniProt Q8VIH9); test: Radioligand binding, mouse urotensin mUR2 membranes, FlashPlate, [125I]-Urotensin II; conditions: compound at 10 μM, [125I]-Urotensin II
T2 construct: purchased Perkin Elmer Biosignal
T2 sequence (Q8VIH9 1-385): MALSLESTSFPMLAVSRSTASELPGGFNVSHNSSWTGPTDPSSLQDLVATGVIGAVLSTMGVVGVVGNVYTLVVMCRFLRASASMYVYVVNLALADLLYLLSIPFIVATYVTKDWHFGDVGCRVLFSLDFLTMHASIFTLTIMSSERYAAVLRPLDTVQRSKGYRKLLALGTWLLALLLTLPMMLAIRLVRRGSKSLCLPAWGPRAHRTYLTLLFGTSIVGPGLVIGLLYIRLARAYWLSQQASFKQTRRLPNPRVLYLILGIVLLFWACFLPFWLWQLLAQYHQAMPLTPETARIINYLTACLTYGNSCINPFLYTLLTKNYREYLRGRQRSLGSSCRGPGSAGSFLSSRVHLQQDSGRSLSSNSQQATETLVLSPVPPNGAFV
How it was run: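 Cloned mouse urotensin (mUR2) receptor membranes from Perkin Elmer Biosignal were immobilized in FlashPlate microplates using a proprietary coating. Each well got 19.5 μl buffer, then 0.5 μl of DMSO, reference ligand, or compound. Adding 5 μl of [125I]-Urotensin II, diluted to 5× final concentration in binding buffer, started binding. Plates were sealed with TopSeal-A and incubated 1 hour at room temperature in the dark. Wells were counted for 30 seconds each on a TopCount after a 60-second delay, and percentage inhibition was calculated.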

Human Melanocortin (MC4) = target: T3, Human Melanocortin (MC4) (Homo sapiens, UniProt P32245); test: Radioligand binding, human melanocortin MC4 membranes, FlashPlate, [125I]-NDP-αMSH; conditions: compound at 10 μM, [125I]-NDP-αMSH
T3 construct: purchased Perkin Elmer Biosignal
T3 sequence (P32245 whole entry): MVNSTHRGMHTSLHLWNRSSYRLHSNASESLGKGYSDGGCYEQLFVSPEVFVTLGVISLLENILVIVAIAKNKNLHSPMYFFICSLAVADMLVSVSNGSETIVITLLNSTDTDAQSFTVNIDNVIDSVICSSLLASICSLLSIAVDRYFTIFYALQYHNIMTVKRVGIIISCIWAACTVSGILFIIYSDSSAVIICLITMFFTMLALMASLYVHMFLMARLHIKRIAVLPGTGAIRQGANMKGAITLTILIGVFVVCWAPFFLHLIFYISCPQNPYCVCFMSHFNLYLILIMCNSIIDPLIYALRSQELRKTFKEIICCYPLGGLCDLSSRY
How it was run: as §1

Human δ-opioid (DOP) = target: T4, Human δ-opioid (DOP) (Homo sapiens, UniProt P41143); test: Radioligand binding, human δ-opioid (DOP) membranes, FlashPlate, [3H]-Bremazocine; conditions: compound at 10 μM, [3H]-Bremazocine
T4 construct: purchased Perkin Elmer Biosignal
T4 sequence (P41143 whole entry): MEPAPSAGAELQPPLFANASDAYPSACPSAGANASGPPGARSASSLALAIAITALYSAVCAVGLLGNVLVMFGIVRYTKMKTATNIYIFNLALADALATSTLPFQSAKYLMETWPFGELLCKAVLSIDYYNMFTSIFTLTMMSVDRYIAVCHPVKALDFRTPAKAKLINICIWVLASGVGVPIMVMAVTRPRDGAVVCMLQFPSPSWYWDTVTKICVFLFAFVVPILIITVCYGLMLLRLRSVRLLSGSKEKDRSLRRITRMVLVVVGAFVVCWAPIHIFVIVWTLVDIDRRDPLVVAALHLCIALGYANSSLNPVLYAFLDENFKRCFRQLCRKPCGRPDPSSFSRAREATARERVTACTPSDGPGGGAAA
How it was run: as §1

Human Melanocortin (MC3) = target: T5, Human Melanocortin (MC3) (Homo sapiens, UniProt P41968); test: Radioligand binding, human melanocortin MC3 membranes, FlashPlate, [125I]-NDP-αMSH; conditions: compound at 10 μM, [125I]-NDP-αMSH
T5 construct: purchased Perkin Elmer Biosignal
T5 sequence (P41968 whole entry): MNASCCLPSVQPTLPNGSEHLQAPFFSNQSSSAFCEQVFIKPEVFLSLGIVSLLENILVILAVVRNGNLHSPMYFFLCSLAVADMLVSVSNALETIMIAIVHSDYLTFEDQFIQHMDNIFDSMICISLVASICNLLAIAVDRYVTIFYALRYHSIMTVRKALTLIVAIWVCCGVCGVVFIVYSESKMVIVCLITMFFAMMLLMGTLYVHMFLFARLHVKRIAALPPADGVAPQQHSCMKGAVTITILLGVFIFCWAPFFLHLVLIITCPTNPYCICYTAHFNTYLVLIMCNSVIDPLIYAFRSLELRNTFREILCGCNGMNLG
How it was run: as §1

Human opioid (ORL1) = target: T6, Human opioid (ORL1) (Homo sapiens, UniProt P41146); test: Radioligand binding, human opioid ORL1 membranes, FlashPlate, [125I]-Nociceptin; conditions: compound at 10 μM, [125I]-Nociceptin
T6 construct: purchased Perkin Elmer Biosignal
T6 sequence (P41146 whole entry): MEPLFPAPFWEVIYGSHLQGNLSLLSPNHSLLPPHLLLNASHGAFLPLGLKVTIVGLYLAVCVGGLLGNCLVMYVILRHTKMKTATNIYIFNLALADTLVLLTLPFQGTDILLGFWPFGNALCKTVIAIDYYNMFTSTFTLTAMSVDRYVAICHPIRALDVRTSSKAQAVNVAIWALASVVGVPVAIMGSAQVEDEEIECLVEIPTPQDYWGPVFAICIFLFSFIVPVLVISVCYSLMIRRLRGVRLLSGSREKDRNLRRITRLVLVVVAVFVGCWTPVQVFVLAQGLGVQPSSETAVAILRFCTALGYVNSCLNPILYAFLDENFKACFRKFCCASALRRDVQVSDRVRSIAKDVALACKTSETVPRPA
How it was run: as §1

Human μ-opioid (MOP) = target: T7, Human μ-opioid (MOP) (Homo sapiens, UniProt P35372); test: Radioligand binding, human μ-opioid (MOP) membranes, FlashPlate, [3H]-Naloxone; conditions: compound at 10 μM, [3H]-Naloxone
T7 construct: purchased Perkin Elmer Biosignal
T7 sequence (P35372 whole entry): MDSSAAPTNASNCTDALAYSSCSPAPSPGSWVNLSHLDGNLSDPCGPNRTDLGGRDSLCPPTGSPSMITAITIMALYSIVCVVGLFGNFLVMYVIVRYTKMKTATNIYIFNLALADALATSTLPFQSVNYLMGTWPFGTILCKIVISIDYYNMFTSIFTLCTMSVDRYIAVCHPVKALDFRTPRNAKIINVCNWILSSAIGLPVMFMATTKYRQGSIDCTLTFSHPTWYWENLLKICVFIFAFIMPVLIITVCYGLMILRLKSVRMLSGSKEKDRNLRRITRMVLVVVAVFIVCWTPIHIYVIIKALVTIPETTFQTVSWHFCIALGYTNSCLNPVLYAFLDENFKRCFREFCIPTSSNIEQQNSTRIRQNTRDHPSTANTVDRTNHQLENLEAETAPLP
How it was run: as §1

Human neurokinin (NK1) = target: T8, Human neurokinin (NK1) (Homo sapiens, UniProt P25103); test: Radioligand binding, human neurokinin NK1 membranes, filtration, [125I]-Substance P; conditions: compound at 10 μM, [125I]-Substance P
T8 construct: purchased Perkin Elmer Biosignal
T8 sequence (P25103 whole entry): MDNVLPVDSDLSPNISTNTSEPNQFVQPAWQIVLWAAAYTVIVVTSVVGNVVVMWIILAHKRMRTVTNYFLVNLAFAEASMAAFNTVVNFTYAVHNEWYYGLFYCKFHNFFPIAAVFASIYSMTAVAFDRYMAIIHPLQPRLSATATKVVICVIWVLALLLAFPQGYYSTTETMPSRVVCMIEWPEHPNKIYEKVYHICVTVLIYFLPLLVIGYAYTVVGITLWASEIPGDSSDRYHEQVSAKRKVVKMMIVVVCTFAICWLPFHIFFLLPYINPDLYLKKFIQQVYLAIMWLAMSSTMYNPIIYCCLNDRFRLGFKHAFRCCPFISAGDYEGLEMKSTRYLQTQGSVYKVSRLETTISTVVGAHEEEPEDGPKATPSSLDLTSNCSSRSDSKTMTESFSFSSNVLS
How it was run: (§2)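 Membranes from cloned human receptors were incubated with compound and radioligand for 1 hour at room temperature. Bound ligand was collected on 0.3% PEI-soaked filters, washed with cold 50 mM Tris-HCl pH 7.4, and counted by scintillation. Percent inhibition was computed against DMSO totals and reference-ligand nonspecific wells.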

Human melanocortin (MC5) = target: T9, Human melanocortin (MC5) (Homo sapiens, UniProt P33032); test: Radioligand binding, human melanocortin MC5 membranes, FlashPlate, [125I]-NDP-αMSH; conditions: compound at 10 μM, [125I]-NDP-αMSH
T9 construct: purchased Perkin Elmer Biosignal
T9 sequence (P33032 whole entry): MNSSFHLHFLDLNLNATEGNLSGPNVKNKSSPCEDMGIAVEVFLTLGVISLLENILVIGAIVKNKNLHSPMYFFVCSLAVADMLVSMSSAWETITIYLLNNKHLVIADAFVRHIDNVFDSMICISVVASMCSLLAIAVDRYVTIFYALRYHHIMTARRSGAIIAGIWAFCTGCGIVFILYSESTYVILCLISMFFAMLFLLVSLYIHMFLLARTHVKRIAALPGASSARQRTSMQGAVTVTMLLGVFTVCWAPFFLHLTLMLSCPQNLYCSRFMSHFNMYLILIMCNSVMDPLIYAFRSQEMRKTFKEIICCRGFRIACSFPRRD
How it was run: as §1

Human κ-Opioid (KOP) = target: T10, Human κ-Opioid (KOP) (Homo sapiens, UniProt P41145); test: Radioligand binding, human κ-opioid (KOP) membranes, filtration, [3H]-Diprenorphine; conditions: compound at 10 μM, [3H]-Diprenorphine
T10 construct: purchased Perkin Elmer Biosignal
T10 sequence (P41145 whole entry): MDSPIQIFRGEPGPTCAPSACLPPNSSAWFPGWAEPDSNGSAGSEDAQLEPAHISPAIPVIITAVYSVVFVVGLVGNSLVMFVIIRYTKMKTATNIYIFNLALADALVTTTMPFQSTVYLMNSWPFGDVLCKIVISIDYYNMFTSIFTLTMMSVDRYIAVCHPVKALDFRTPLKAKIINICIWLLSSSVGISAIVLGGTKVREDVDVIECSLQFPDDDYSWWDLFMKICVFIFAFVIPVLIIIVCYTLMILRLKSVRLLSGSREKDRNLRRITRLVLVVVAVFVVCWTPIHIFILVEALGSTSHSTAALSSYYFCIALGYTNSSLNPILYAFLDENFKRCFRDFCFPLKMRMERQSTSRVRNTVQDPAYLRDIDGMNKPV
How it was run: as §2

[2] = target: T11, Human neuropeptide Y (NPY-Y1) (Homo sapiens, UniProt P25929); test: Radioligand binding, human neuropeptide Y NPY-Y1 membranes, FlashPlate, [125I]-PYY; conditions: compound at 10 μM, [125I]-PYY
T11 construct: purchased Perkin Elmer Biosignal
T11 sequence (P25929 1-384): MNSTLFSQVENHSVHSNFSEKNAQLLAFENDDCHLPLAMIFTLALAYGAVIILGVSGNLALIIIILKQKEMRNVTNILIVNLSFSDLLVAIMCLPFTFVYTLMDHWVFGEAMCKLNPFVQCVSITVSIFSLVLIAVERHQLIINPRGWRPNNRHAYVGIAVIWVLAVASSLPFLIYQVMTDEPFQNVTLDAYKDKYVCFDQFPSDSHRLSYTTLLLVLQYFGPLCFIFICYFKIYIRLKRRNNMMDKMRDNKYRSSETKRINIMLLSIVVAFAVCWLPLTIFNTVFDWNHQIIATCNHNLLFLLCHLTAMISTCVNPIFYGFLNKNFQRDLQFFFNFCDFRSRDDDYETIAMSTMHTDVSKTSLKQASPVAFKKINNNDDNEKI
How it was run: as §1

T1 sequence (Q99705 whole entry): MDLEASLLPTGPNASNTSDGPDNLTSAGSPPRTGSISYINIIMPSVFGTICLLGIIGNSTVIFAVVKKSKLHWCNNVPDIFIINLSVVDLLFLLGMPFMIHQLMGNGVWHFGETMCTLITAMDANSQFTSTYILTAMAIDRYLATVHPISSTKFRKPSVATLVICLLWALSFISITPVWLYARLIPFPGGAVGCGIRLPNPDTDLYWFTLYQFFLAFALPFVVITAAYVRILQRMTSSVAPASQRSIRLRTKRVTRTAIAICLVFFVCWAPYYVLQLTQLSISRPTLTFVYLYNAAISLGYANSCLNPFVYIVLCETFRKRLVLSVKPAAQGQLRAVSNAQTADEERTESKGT

Row | SMILES | A6: inhibition of radioligand binding ([1]; [125I]-S36057, FlashPlate) | A11: inhibition of radioligand binding (Mouse urotensin (mUR2); FlashPlate) | A4: inhibition of radioligand binding (Human Melanocortin (MC4); FlashPlate) | A1: inhibition of radioligand binding (Human δ-opioid (DOP); FlashPlate) | A3: inhibition of radioligand binding (Human Melanocortin (MC3); FlashPlate) | A10: inhibition of radioligand binding (Human opioid (ORL1); FlashPlate) | A7: inhibition of radioligand binding (Human μ-opioid (MOP); FlashPlate) | A8: inhibition of radioligand binding (Human neurokinin (NK1); filtration) | A5: inhibition of radioligand binding (Human melanocortin (MC5); FlashPlate) | A2: inhibition of radioligand binding (Human κ-Opioid (KOP); filtration) | A9: inhibition of radioligand binding ([2]; FlashPlate) | also measured
1 | COCC1OC(OCc2ccc3ccccc3c2)C(NC(=O)CCN)C(OCc2ccc3ccccc3c2)C1O (stereo not shown) [compound 545] | – | – | – | – | – | – | – | – | – | – | – | A6: inhibition of radioligand binding, human melanin-concentrating hormone (MCH1) ([1]; [125I]-S36057): − (“−” indicates less than 50% inhibition at 10 μM); A11: inhibition of radioligand binding, mouse urotensin (mUR2) (Mouse urotensin (mUR2)): − (“−” indicates less than 50% inhibition at 10 μM); A4: inhibition of radioligand binding, human melanocortin (MC4) (Human Melanocortin (MC4)): − (“−” indicates less than 50% inhibition at 10 μM); A1: inhibition of radioligand binding, human δ-opioid (DOP) (Human δ-opioid (DOP)): − (“−” indicates less than 50% inhibition at 10 μM); A3: inhibition of radioligand binding, human melanocortin (MC3) (Human Melanocortin (MC3)): − (“−” indicates less than 50% inhibition at 10 μM); A10: inhibition of radioligand binding, human opioid (ORL1) (Human opioid (ORL1)): − (“−” indicates less than 50% inhibition at 10 μM); A7: inhibition of radioligand binding, human μ-opioid (MOP) (Human μ-opioid (MOP)): − (“−” indicates less than 50% inhibition at 10 μM); A8: inhibition of radioligand binding, human neurokinin (NK1) (Human neurokinin (NK1); 10 µM): + (“+” indicates greater than 50% inhibition at 10 μM); A5: inhibition of radioligand binding, human melanocortin (MC5) (Human melanocortin (MC5); 10 µM): − (“−” indicates less than 50% inhibition at 10 μM); A2: inhibition of radioligand binding, human κ-opioid (KOP) (Human κ-Opioid (KOP)): − (“−” indicates less than 50% inhibition at 10 μM); A9: inhibition of radioligand binding, human neuropeptide Y (NPY-Y1) [2]: − (“−” indicates less than 50% inhibition at 10 μM)
2 | NCCCC(=O)NC1C(OCc2ccc3ccccc3c2)OC(COCc2ccc(Cl)cc2)C(O)C1OCc1ccc2ccccc2c1 (single isomer, unassigned) [compound 464] | – | – | – | – | – | – | – | – | – | – | – | A6: inhibition of radioligand binding ([1]; [125I]-S36057, human MCH1 membranes, 10 µM): + (“+” indicates greater than 50% inhibition at 10 μM); A11: inhibition of radioligand binding (Mouse urotensin (mUR2); mouse mUR2 membranes): − (“−” indicates less than 50% inhibition at 10 μM); A4: inhibition of radioligand binding (Human Melanocortin (MC4); human MC4 membranes): + (“+” indicates greater than 50% inhibition at 10 μM); A1: inhibition of radioligand binding (Human δ-opioid (DOP); human DOP membranes): − (“−” indicates less than 50% inhibition at 10 μM); A3: inhibition of radioligand binding (Human Melanocortin (MC3); human MC3 membranes): + (“+” indicates greater than 50% inhibition at 10 μM); A10: inhibition of radioligand binding (Human opioid (ORL1); human ORL1 membranes, 10 µM): + (“+” indicates greater than 50% inhibition at 10 μM); A7: inhibition of radioligand binding (Human μ-opioid (MOP); human MOP membranes): − (“−” indicates less than 50% inhibition at 10 μM); A8: inhibition of radioligand binding (Human neurokinin (NK1); human NK1 membranes): + (“+” indicates greater than 50% inhibition at 10 μM); A5: inhibition of radioligand binding (Human melanocortin (MC5); human MC5 membranes): + (“+” indicates greater than 50% inhibition at 10 μM); A2: inhibition of radioligand binding (Human κ-Opioid (KOP); human KOP membranes, 10 µM): − (“−” indicates less than 50% inhibition at 10 μM); A9: inhibition of radioligand binding ([2]; human NPY-Y1 membranes): − (“−” indicates less than 50% inhibition at 10 μM)
3 | CSC1O[C@H](COCc2ccc(Cl)cc2)[C@@H](O)[C@@H](OCc2ccc(Cl)cc2)[C@H]1NC(=O)CCNC(=N)N (stereo partly shown) [compound 272] | − (“−” indicates less than 50% inhibition at 10 μM) | − (“−” indicates less than 50% inhibition at 10 μM) | + (“+” indicates greater than 50% inhibition at 10 μM) | − (“−” indicates less than 50% inhibition at 10 μM) | − (“−” indicates less than 50% inhibition at 10 μM) | − (“−” indicates less than 50% inhibition at 10 μM) | − (“−” indicates less than 50% inhibition at 10 μM) | + (“+” indicates greater than 50% inhibition at 10 μM) | + (“+” indicates greater than 50% inhibition at 10 μM) | − (“−” indicates less than 50% inhibition at 10 μM) | − (“−” indicates less than 50% inhibition at 10 μM) | –
4 | COCC1OC(OCc2ccc(Cl)cc2)C(NC(=O)CN)C(OCc2ccc3ccccc3c2)C1O (stereo not shown) [compound 208] | − (“−” indicates less than 50% inhibition at 10 μM) | − (“−” indicates less than 50% inhibition at 10 μM) | − (“−” indicates less than 50% inhibition at 10 μM) | − (“−” indicates less than 50% inhibition at 10 μM) | − (“−” indicates less than 50% inhibition at 10 μM) | − (“−” indicates less than 50% inhibition at 10 μM) | − (“−” indicates less than 50% inhibition at 10 μM) | + (“+” indicates greater than 50% inhibition at 10 μM) | + (“+” indicates greater than 50% inhibition at 10 μM) | − (“−” indicates less than 50% inhibition at 10 μM) | − (“−” indicates less than 50% inhibition at 10 μM) | –
5 | COCC1OC(OCc2ccc(Cl)cc2)C(NC(=O)CCCNC(=N)N)C(OCc2ccc(Cl)cc2)C1O (stereo not shown) [compound 204] | + (“+” indicates greater than 50% inhibition at 10 μM) | − (“−” indicates less than 50% inhibition at 10 μM) | + (“+” indicates greater than 50% inhibition at 10 μM) | − (“−” indicates less than 50% inhibition at 10 μM) | + (“+” indicates greater than 50% inhibition at 10 μM) | − (“−” indicates less than 50% inhibition at 10 μM) | − (“−” indicates less than 50% inhibition at 10 μM) | + (“+” indicates greater than 50% inhibition at 10 μM) | + (“+” indicates greater than 50% inhibition at 10 μM) | − (“−” indicates less than 50% inhibition at 10 μM) | − (“−” indicates less than 50% inhibition at 10 μM) | –
